Test system: T.b. brucei (strain 427) bloodstream form parasites
Test: T.b. brucei single concentration screen (10 μM)
Conditions: Trypanosoma brucei, read-out: T.b.brucei % viability (10 µM)

| SMILES | viability at 10 µM [%] |
| --- | --- |
| CC(C(=O)Nc1ccc2oc(-c3ccncc3)nc2c1)c1ccccc1 (stereo not drawn) [MMV688471, CC(C(=O)Nc1ccc2oc(nc2c1)-c1ccncc1)c1ccccc1] | 67 |
| CC(Oc1cccc(Cl)c1)C(=O)Nc1ccc2oc(-c3ccncc3)nc2c1 (stereo not drawn) [MMV688472, CC(Oc1cccc(Cl)c1)C(=O)Nc1ccc2oc(nc2c1)-c1ccncc1] | 71 |
| COc1cc(C2=NCCN2)ccc1-n1cc(-c2cccc(C3=NCCN3)c2)nn1 [MMV688474, COc1cc(ccc1n2cc(nn2)c3cccc(c3)C4=NCCN4)C5=NCCN5] | 105 |
| CC(=O)NCC1CN(c2ccc(-c3ccc(CO)cc3)c(F)c2)C(=O)O1 (stereo not drawn) [MMV688508, CC(=O)NCC1CN(C(=O)O1)c2ccc(c(F)c2)c3ccc(CO)cc3] | 81 |
| O=C(OCc1ccccc1)N1CCC(c2cc(-c3ccncc3)c(-c3ccc(F)cc3)[nH]2)CC1 [MMV688509, Fc1ccc(cc1)-c1[nH]c(cc1-c1ccncc1)C1CCN(CC1)C(=O)OCc1ccccc1] | 85 |
| CC(C)(C)C(=O)N(CCCCCCN1C[C@H](O)[C@@H](O)[C@H](O)[C@H]1CO)C1CCCCCC1 [MMV688543, CC(C)(C)C(=O)N(CCCCCCN1C[C@H](O)[C@@H](O)[C@H](O)[C@H]1CO)C2CCCCCC2] | 107 |
| COc1ccc(C2=NCCN2)cc1-c1cn(-c2cccc(C3=NCCN3)c2)nn1 [MMV688547, COc1ccc(cc1c2cn(nn2)c3cccc(c3)C4=NCCN4)C5=NCCN5] | 77 |
| CC(C)(C)n1nc(-c2ccccc2)c2c(N)ncnc21 [MMV688548, CC(C)(C)n1nc(-c2ccccc2)c2c(N)ncnc12] | 81 |
| Cc1nn(C(=O)Nc2cccc(C(F)(F)F)c2)c(C)c1Sc1ncccn1 [MMV688552, CC(C(SC1=NC=CC=N1)=C2C)=NN2C(NC3=CC=CC(C(F)(F)F)=C3)=O] | 96 |
| O=C(NCc1ccoc1)N1CCN(Cc2ccc3c(c2)OCO3)CC1 [MMV688553, O=C(NCc1cocc1)N2CCN(Cc3ccc4OCOc4c3)CC2] | 98 |
| CNc1snc(C)c1C(=O)NCCOc1ccc(OC)cc1 [MMV688554, CNc1snc(C)c1C(=O)NCCOc2ccc(OC)cc2] | 92 |
| O=C(NCc1ccco1)N1CCN(Cc2ccc(Cl)s2)CC1 [MMV688555, Clc1ccc(CN2CCN(CC2)C(=O)NCc3occc3)s1] | 103 |
| NCC(c1cccs1)S(=O)(=O)c1ccccc1 (stereo not drawn) [MMV688557, NCC(c1cccs1)S(=O)(=O)c2ccccc2] | 99 |
| CN1CCC(c2cc(-c3ccncc3)c(-c3ccc(F)cc3)[nH]2)CC1 [MMV688703, CN1CCC(CC1)c1cc(c([nH]1)-c1ccc(F)cc1)-c1ccncc1] | 68 |
| Cc1cc2nc(NC(=O)C(C)(C)C)nc(Cl)c2n1Cc1ccc(Cl)cc1 [MMV688704, Cc1cc2nc(NC(=O)C(C)(C)C)nc(Cl)c2n1Cc1ccc(Cl)cc1] | 88 |
| CO/N=C(\C(=O)OC)c1ccccc1CO/N=C(\C)c1cccc(C(F)(F)F)c1 [MMV688754, CO\N=C(/C(=O)OC)\c1ccccc1CO\N=C(/C)\c2cccc(c2)C(F)(F)F] | 100 |
| O=[N+]([O-])c1cn2c(n1)OC[C@@H](OCc1ccc(OC(F)(F)F)cc1)C2 [MMV688755, [O-][N+](=O)c1cn2C[C@@H](COc2n1)OCc3ccc(OC(F)(F)F)cc3] | 95 |
| CC(=O)NC[C@H]1CN(c2ccc(N3CCSCC3)c(F)c2)C(=O)O1 [MMV688756, CC(=O)NC[C@H]1CN(C(=O)O1)c2ccc(N3CCSCC3)c(F)c2] | 106 |
| c1ccc(-c2[nH]c3ccccc3c2C(c2ccccn2)N2CCCC2)cc1 (stereo not drawn) [MMV688762, C1CCN(C1)C(c2ccccn2)c3c([nH]c4ccccc34)c5ccccc5] | 108 |
| CNc1nnc(Sc2cnn(-c3ccccc3)c(=O)c2Cl)s1 [MMV688763, CNc1nnc(SC2=C(Cl)C(=O)N(N=C2)c3ccccc3)s1] | 49 |

| SMILES | viability at 10 µM [%] |
| --- | --- |
| COc1ccc(-c2onc(C(F)(F)F)c2-c2ccc(Cl)cc2)c(O)c1 [MMV688766, COc1ccc(c(O)c1)c2onc(c2c3ccc(Cl)cc3)C(F)(F)F] | 88 |
| Cc1ccccc1C(=O)N1N=C(Nc2ccccc2)SC1(C)C [MMV688771, Cc1ccccc1C(=O)N2N=C(Nc3ccccc3)SC2(C)C] | 97 |
| O=C(N[C@H](Cc1ccccc1)C(=O)Nc1ccccc1N1CCOCC1)c1cccs1 [MMV688845, O=C(Nc1ccccc1N2CCOCC2)[C@@H](Cc3ccccc3)NC(=O)c4cccs4] | 94 |
| Cc1ccccc1CN1CCC(O)(c2ccc(Cl)c(C(F)(F)F)c2)CC1 [MMV688846, Cc1ccccc1CN2CCC(O)(CC2)c3ccc(Cl)c(c3)C(F)(F)F] | 98 |
| CC(C)(C)n1nc(Cc2ccc(F)c(Cl)c2)c2c(N)ncnc21 [MMV688852, CC(C)(C)n1nc(Cc2ccc(F)c(Cl)c2)c2c(N)ncnc12] | 87 |
| CCOc1ccc2cc(-c3nn(C(C)(C)C)c(N)c3C(N)=O)cnc2c1 [MMV688853, CCOc1ccc2cc(cnc2c1)c3nn(c(N)c3C(=O)N)C(C)(C)C] | 99 |
| CCOc1ccc2cc(-c3nn(CC4CCN(C)CC4)c4ncnc(N)c34)ccc2c1 [MMV688854, CCOc1ccc2cc(ccc2c1)c3nn(CC4CCN(C)CC4)c5ncnc(N)c35] | 33 |
| CN1CCN(c2cc(-c3ccc(F)cc3)nc(-c3ccncc3)n2)CC1 [MMV688888, CN1CCN(CC1)c2cc(nc(n2)c3ccncc3)c4ccc(F)cc4] | 92 |
| Clc1ccc(CCNc2cc(-c3ccccc3)nc3ncnn23)cc1 [MMV688889, Clc1ccc(CCNc2cc(nc3ncnn23)c4ccccc4)cc1] | 74 |
| COc1cc(Br)cc2cc(C(=O)Nc3cccc(C(F)(F)F)c3)c(=O)oc12 [MMV688891, COc1cc(Br)cc2C=C(C(=O)Nc3cccc(c3)C(F)(F)F)C(=O)Oc12] | 96 |
| OC[C@H]1O[C@@H](n2c3ccc(Cl)cc3c3c(-c4cc5ccccc5o4)ncnc32)C(O)[C@H]1O (stereo partly drawn) [MMV688921, OC[C@H]1O[C@H](C(O)[C@H]1O)n2c3ccc(Cl)cc3c4c(ncnc24)c5oc6ccccc6c5] | 97 |
| CCc1nn(C)c(C(=O)NCc2ccc(Oc3ccc(C)cc3)cc2)c1Cl [MMV688934, CCc1nn(C)c(C(=O)NCc2ccc(Oc3ccc(C)cc3)cc2)c1Cl] | 101 |
| O=C(c1ccco1)N(CCCn1ccnc1)c1nc2c(Cl)cccc2s1 [MMV688936, Clc1cccc2sc(nc12)N(CCCn3ccnc3)C(=O)c4occc4] | 92 |
| CCOc1ccc(-c2nc(CNCCc3ccc(F)cc3)cs2)cc1 [MMV688938, CCOc1ccc(cc1)c2nc(CNCCc3ccc(F)cc3)cs2] | 63 |
| Cc1ccc2nc(C)c(-c3ccn(Cc4ccccc4)n3)n2c1 [MMV688939, Cc1ccc2nc(C)c(c3ccn(Cc4ccccc4)n3)n2c1] | 101 |
| COc1cc(CN2CCC3(C=Cc4ccccc43)CC2)cc2c1OCO2 [MMV688941, COc1cc(CN2CCC3(CC2)C=Cc4ccccc34)cc5OCOc15] | 114 |
| CC(C)(C)C(O)C(Oc1ccc(-c2ccccc2)cc1)n1cncn1 (stereo not drawn) [MMV688942, CC(C)(C)C(O)C(Oc1ccc(cc1)c2ccccc2)n3cncn3] | 79 |
| CC1COC(Cn2cncn2)(c2ccc(Oc3ccc(Cl)cc3)cc2Cl)O1 (stereo not drawn) [MMV688943, CC1COC(Cn2cncn2)(O1)c3ccc(Oc4ccc(Cl)cc4)cc3Cl] | 100 |
| Cc1cc(NC(=O)c2ccc(Oc3ccc(Cl)cc3O)o2)no1 [MMV688955, Cc1cc(NC(=O)c2ccc(Oc3ccc(Cl)cc3O)o2)no1] | 88 |

From publication PMC6301270 (MedChemComm, 2018)
